From BigSolDB 2.1

CCCCc1nc(Cl)c(CO)n1Cc1ccc(-c2ccccc2-c2nnn[n-]2)cc1.[K+]
solubility (mole fraction)
Conditions | in cyclohexane | in ethanol | in ethyl acetate | in isopropanol | in methanol | in n-butyl acetate | in n-pentanol | in n-propanol
293.15 K | 3.4e-05 | 0.0381 | 0.00251 | 0.0027 | 0.0277 | 0.00271 | 0.0446 | 0.026
303.15 K | 2.87e-05 | 0.0473 | 0.00152 | 0.00279 | 0.0375 | 0.00238 | 0.0311 | 0.0272
313.15 K | 3.05e-05 | 0.0547 | 0.00252 | 0.00413 | 0.0445 | 0.000968 | 0.0287 | 0.0299
323.15 K | 2.72e-05 | 0.0702 | 0.00138 | 0.00547 | 0.0483 | 0.00121 | 0.0234 | 0.0376
333.15 K | 2.88e-05 | 0.0739 | 0.00288 | 0.00696 | 0.0508 | 0.00193 | 0.0205 | 0.0452
343.15 K | 2.59e-05 | 0.0785 | 0.00279 | 0.0117 | 0.0533 | 0.000907 | 0.0218 | 0.0499
